Active and inactive are the calls of the source.
Experiments:
Assay type in all cases: functional
[1] = target: T1, Hexokinase HKDC1 (Homo sapiens, UniProt Q2TB90); test: HKDC1 hexokinase inhibitors, dose response, biochemical, W721R variant (AID 504729)
T1 sequence (Q2TB90 whole entry): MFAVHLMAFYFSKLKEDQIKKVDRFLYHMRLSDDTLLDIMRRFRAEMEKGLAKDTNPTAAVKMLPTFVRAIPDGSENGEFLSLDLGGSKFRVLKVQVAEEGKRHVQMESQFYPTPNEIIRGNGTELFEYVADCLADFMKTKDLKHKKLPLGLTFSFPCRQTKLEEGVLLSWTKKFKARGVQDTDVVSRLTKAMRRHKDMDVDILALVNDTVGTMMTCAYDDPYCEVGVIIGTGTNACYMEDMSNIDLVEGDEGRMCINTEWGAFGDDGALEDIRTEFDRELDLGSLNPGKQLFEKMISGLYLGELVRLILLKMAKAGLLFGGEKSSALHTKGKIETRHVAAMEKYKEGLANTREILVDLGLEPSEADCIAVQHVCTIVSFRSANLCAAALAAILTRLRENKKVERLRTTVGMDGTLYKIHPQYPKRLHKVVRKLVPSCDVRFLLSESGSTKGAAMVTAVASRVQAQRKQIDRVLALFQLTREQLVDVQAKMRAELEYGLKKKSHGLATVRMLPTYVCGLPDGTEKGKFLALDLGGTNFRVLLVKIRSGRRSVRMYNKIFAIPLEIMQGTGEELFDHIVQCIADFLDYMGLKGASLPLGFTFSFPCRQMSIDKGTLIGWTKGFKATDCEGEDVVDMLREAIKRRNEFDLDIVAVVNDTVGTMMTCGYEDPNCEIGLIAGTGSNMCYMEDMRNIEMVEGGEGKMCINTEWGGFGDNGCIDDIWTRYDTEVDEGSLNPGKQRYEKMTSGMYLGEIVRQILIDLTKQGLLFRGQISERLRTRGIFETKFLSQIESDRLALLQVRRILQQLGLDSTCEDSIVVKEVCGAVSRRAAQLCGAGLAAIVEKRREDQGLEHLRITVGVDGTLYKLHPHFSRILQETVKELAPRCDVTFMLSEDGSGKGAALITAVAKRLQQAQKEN

[2] = target: T2, Sentrin-specific protease 6 (Homo sapiens, UniProt Q9GZR1);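 also: Luminescence-based dose-response confirmatory assay of SENP6 inhibition, following up an ultra-high-throughput screen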
T2 sequence (Q9GZR1 whole entry): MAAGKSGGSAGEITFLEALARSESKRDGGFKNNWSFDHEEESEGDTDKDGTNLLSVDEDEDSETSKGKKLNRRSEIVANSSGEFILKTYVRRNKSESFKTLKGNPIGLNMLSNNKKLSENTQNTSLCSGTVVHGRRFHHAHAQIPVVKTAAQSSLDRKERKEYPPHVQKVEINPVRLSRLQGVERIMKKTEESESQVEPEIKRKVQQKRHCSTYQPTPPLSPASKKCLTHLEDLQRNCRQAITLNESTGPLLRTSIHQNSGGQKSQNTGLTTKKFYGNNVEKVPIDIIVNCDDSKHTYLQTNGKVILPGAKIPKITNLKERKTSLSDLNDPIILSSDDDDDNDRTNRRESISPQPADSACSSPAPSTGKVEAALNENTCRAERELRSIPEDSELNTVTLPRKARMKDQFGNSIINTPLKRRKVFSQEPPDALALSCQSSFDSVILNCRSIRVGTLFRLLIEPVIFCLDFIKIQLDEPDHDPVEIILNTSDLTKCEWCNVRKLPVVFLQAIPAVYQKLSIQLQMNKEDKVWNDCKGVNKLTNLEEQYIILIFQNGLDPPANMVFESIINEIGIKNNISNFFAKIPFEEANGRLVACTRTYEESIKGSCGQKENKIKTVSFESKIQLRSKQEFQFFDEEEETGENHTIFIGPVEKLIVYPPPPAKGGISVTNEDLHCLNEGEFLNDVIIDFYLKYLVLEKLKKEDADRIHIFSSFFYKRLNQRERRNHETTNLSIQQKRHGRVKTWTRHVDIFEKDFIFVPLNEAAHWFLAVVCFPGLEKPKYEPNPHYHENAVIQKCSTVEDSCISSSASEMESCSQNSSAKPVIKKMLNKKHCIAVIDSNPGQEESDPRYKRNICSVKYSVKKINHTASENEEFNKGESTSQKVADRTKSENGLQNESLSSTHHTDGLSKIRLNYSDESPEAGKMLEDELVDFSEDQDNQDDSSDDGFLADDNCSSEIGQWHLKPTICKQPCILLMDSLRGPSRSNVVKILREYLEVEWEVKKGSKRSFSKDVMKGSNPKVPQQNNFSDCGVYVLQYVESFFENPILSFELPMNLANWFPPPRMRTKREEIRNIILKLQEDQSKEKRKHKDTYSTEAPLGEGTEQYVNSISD

[3] = target: T3, Heat shock factor protein 1 (Mus musculus, UniProt P38532); test: inhibition of MG132-induced HSE-luciferase signal, confirmation, cell-based, NIH3T3, luminescence, dose retest (AID 2382);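 also: NIH3T3 fibroblasts with HSF1-driven luciferase reporter stressed by proteasome inhibitor MG132; luminescence from HSF1-driven luciferase expression after 8 hours of MG132 stress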
T3 sequence (P38532 whole entry): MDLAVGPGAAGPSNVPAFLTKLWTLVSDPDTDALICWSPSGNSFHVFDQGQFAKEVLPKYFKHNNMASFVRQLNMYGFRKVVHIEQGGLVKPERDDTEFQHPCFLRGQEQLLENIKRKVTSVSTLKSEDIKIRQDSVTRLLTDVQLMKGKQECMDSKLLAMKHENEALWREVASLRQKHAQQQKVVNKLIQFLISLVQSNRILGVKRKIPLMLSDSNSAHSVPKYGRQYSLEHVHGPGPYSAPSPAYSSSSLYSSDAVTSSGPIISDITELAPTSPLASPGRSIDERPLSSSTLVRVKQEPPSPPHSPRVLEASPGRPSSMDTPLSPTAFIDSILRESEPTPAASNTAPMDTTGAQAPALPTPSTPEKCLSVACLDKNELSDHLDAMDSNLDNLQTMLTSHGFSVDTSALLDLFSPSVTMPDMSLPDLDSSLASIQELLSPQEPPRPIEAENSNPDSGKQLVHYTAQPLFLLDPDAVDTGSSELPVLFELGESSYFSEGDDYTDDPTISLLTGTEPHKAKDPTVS

[4] = target: ALK tyrosine kinase receptor (Homo sapiens, UniProt Q9UM73);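 also: ALK tested as one member of a kinase panel screen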
[5] = target: Dual specificity mitogen-activated protein kinase kinase 1 (Homo sapiens, UniProt Q02750); test: Navigating the Kinome. Panel member name: MAP2K1
[6] = target: Tyrosine-protein kinase JAK2 (Homo sapiens, UniProt O60674);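 also: JAK2 tested as one member of a kinase panel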
[7] = target: Tyrosine-protein kinase receptor TYRO3 (Homo sapiens, UniProt Q06418);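 also: TYRO3 value obtained as one member of a kinome-wide profiling panel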
[8] = target: Hepatocyte growth factor receptor (Homo sapiens, UniProt P08581);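 also: kinase panel profiling across the kinome, with MET as the panel member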
[9] = target: Dual specificity protein kinase CLK4 (Homo sapiens, UniProt Q9HAZ1)
Sequence of Dual specificity protein kinase CLK4 (Q9HAZ1 whole entry): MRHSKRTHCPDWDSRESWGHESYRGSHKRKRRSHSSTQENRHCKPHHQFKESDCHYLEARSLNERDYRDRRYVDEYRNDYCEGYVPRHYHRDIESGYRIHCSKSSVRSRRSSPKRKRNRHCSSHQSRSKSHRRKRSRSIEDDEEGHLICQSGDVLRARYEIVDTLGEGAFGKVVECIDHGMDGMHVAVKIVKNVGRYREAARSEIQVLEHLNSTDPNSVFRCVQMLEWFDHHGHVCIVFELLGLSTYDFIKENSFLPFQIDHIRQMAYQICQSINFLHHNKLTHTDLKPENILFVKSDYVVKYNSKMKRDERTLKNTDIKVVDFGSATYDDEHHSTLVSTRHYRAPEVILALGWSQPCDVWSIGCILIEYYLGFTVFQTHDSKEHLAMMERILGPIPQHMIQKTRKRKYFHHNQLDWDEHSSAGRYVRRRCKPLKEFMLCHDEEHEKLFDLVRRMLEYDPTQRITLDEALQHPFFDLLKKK

Sequence of Tyrosine-protein kinase JAK2 (O60674 whole entry): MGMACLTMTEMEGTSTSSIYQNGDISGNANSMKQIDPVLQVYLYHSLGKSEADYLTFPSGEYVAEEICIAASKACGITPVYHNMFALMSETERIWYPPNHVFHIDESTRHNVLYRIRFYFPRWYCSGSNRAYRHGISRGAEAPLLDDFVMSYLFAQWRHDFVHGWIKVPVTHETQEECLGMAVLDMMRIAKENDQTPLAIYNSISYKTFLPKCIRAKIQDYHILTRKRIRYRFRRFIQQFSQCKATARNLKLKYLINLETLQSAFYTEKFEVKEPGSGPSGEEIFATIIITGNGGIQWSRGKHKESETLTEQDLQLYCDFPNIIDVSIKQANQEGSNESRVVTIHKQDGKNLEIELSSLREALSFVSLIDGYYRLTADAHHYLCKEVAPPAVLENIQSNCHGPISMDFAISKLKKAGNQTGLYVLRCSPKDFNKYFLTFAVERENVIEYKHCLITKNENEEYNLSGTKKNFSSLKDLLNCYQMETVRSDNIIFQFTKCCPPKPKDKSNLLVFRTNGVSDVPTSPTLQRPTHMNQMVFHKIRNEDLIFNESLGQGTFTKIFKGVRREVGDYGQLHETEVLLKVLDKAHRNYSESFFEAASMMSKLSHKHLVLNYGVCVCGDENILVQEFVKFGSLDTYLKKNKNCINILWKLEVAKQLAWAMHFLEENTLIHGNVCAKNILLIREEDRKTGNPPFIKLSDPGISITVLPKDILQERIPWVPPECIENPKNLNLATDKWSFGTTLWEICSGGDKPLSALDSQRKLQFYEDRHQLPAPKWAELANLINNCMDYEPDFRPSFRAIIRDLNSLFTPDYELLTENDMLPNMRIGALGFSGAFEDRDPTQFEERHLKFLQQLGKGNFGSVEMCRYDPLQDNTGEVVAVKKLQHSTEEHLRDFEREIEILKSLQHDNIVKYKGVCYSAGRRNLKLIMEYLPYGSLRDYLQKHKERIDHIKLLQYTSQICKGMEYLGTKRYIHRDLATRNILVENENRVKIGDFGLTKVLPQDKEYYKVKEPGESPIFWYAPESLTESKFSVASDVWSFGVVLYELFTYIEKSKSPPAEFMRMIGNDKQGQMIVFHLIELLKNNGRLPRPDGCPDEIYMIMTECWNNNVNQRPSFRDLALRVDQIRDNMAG
Sequence of ALK tyrosine kinase receptor (Q9UM73 whole entry): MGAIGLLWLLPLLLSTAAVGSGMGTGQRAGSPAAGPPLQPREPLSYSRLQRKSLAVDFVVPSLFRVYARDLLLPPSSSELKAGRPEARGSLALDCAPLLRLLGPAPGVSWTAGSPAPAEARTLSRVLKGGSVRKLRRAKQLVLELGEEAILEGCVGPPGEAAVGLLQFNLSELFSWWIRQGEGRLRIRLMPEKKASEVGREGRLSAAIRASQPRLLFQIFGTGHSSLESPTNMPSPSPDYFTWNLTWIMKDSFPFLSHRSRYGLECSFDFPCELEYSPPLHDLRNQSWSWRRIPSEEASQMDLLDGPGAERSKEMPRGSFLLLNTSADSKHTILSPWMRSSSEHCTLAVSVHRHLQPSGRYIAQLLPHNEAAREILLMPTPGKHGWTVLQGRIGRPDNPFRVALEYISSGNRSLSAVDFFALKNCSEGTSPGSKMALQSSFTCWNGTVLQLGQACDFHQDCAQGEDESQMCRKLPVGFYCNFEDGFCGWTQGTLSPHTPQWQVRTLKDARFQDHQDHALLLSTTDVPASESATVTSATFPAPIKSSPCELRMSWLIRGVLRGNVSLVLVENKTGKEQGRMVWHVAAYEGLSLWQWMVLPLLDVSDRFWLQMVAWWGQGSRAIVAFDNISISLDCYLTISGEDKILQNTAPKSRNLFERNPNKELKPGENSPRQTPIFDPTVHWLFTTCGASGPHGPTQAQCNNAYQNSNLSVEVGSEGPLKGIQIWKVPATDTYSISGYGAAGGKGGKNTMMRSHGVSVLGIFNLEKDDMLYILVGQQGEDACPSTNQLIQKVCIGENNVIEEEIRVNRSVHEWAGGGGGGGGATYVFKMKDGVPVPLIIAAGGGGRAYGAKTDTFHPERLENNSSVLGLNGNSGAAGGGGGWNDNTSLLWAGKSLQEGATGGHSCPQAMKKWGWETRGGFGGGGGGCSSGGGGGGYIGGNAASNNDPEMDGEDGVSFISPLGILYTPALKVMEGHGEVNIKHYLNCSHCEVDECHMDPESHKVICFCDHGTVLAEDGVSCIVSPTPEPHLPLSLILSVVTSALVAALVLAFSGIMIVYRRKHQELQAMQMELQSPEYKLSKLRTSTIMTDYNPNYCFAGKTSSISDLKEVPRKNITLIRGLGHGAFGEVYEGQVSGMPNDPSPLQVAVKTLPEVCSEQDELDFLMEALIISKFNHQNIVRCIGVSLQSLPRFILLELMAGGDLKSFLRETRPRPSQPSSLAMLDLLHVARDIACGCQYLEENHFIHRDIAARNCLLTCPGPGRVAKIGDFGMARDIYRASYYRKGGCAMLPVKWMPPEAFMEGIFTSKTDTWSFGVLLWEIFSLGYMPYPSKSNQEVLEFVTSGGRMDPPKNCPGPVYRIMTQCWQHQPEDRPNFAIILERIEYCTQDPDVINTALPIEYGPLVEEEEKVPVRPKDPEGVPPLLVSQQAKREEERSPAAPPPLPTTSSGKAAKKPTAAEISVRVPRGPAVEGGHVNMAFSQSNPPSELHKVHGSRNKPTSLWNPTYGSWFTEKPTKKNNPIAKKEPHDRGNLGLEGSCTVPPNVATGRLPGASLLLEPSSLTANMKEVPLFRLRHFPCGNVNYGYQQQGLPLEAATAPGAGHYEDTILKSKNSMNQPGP
Sequence of Hepatocyte growth factor receptor (P08581 whole entry): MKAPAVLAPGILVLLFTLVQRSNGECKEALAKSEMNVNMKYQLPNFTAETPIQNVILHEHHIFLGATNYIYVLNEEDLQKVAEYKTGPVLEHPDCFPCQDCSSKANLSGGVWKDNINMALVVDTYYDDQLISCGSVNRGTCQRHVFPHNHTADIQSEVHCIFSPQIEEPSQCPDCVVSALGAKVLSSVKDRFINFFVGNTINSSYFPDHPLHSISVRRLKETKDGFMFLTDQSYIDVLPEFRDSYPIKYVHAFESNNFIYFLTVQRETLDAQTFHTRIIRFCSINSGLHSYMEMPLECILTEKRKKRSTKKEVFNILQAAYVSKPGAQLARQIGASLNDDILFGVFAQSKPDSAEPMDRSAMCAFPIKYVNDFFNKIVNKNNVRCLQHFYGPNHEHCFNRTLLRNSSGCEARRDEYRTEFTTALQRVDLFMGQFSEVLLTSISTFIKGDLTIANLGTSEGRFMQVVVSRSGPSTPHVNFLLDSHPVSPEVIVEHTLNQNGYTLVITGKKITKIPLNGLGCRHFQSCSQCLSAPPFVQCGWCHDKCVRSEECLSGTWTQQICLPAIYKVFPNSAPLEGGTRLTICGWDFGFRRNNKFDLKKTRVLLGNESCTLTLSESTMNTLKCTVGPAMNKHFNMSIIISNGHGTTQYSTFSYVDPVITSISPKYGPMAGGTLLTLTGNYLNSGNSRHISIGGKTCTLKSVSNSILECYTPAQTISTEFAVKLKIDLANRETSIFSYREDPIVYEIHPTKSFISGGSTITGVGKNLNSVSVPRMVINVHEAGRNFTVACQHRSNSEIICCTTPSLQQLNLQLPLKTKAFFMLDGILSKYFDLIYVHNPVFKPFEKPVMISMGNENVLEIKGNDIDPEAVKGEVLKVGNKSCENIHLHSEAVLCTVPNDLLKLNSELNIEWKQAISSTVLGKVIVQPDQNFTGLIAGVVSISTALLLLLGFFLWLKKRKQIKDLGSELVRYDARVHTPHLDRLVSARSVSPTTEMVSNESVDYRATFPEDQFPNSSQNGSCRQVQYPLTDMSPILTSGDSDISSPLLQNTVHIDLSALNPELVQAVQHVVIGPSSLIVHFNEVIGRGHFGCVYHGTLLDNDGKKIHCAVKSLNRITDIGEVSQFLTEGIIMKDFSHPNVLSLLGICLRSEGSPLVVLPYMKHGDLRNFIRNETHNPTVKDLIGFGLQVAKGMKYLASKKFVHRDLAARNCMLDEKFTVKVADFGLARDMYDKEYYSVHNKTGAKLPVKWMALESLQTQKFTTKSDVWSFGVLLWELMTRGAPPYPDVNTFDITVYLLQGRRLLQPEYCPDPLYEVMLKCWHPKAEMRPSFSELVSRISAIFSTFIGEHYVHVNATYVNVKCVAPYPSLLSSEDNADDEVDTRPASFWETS
Sequence of Dual specificity mitogen-activated protein kinase kinase 1 (Q02750 whole entry): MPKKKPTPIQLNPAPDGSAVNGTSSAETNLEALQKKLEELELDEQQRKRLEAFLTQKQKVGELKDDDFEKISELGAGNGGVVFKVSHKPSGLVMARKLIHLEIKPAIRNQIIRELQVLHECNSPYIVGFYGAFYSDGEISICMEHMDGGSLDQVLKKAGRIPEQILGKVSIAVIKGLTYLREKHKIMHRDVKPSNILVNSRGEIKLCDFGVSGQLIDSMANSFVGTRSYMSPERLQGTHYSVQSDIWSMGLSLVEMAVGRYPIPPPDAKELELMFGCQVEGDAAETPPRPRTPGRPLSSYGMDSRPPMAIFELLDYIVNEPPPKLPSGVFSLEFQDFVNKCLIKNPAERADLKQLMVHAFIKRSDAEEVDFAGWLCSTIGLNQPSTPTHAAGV

**Q.** What does the source list for `CC(=O)N(C1=C(Cl)C(=O)c2ccccc2C1=O)c1ccc(C(=O)O)cc1`?
**A.** IC50 [1]: 6.23 µM (active); IC50 [2]: 4.08 µM (active)

**Q.** `CC1(C)C=C2C(=NN(c3ccccc3)C(N)=C2C#N)CO1` was tested. Which EC50 [3] did it give?
**A.** The EC50 was > 195 µM (not active).

**Q.** What does the source list for `Cc1ccc(-c2cc3nc(Br)cnc3[nH]2)cc1`?
**A.** Ki [4]: > 6.31 µM (inactive); Ki [5]: > 3.16 µM (inactive); Ki [6]: > 2.51 µM (inactive); Ki [7]: > 3.16 µM (inactive); Ki [8]: > 2.51 µM (inactive); Ki [9]: 0.1 µM (active)

Source: ChEMBL document CHEMBL1201862, “PubChem BioAssay data set” (2004)
